Results taken from ChEMBL document CHEMBL1201862, “PubChem BioAssay data set” (2004).
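All cell lines were grown in 96-well plates and treated with compound for 48 hours. GI50: concentration for 50% inhibition of growth.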 Active and inactive are the calls of the source. No stated cut-off is given here; in the data, active = GI50 up to about 1.1 µM and inactive = higher.

Columns and labels:
Test in all cases: NCI anticancer screen, dose series, 48 h
SNB-75 = tested on: SNB-75
OVCAR-4 = tested on: OVCAR-4
SK-MEL-28 = tested on: SK-MEL-28
SK-MEL-2 = tested on: SK-MEL-2
NCI-H226 = tested on: NCI-H226
NCI-H522 = tested on: NCI-H522
SNB-19 = tested on: SNB-19
SF-268 = tested on: SF-268
DMS-273 = tested on: DMS-273
DLD-1 = tested on: DLD-1
MOLT-4 = tested on: MOLT-4
HOP-62 = tested on: HOP-62
CCRF-CEM = tested on: CCRF-CEM
COLO 205 = tested on: COLO 205
LOX IMVI = tested on: LOX IMVI
K562 = tested on: K562
RPMI-8226 = tested on: RPMI-8226
KM12 = tested on: KM12
A549 = tested on: A549
SK-OV-3 = tested on: SK-OV-3
M14 = tested on: M14
OVCAR-3 = tested on: OVCAR-3
LXFL 529 = tested on: LXFL 529
SW-620 = tested on: SW-620
OVCAR-5 = tested on: OVCAR-5
SNB-78 = tested on: SNB-78
OVCAR-8 = tested on: OVCAR-8
SF-295 = tested on: SF-295
KM-20L2 = tested on: KM-20L2
IGROV-1 = tested on: IGROV-1
HT-29 = tested on: HT-29
M19-MEL = tested on: M19-MEL
A498 = tested on: A498
UACC-62 = tested on: UACC-62
HOP-18 = tested on: HOP-18
HCT-15 = tested on: HCT-15
U-251 = tested on: U-251
ACHN = tested on: ACHN
HCT-116 = tested on: HCT-116
NCI-H460 = tested on: NCI-H460
DMS-114 = tested on: DMS-114
HCC 2998 = tested on: HCC 2998
NCI-H23 = tested on: NCI-H23
UO-31 = tested on: UO-31
UACC-257 = tested on: UACC-257
SR = tested on: SR
RXF 631 = tested on: RXF 631
SF-539 = tested on: SF-539
SN12C = tested on: SN12C
Malme-3M = tested on: Malme-3M
SK-MEL-5 = tested on: SK-MEL-5
CAKI-1 = tested on: CAKI-1
TK-10 = tested on: TK-10
RXF 393 = tested on: RXF 393
EKVX = tested on: EKVX
786-0 = tested on: 786-0
HOP-92 = tested on: HOP-92
HL-60 = tested on: HL-60
XF498 = tested on: XF498

`COc1cc(NCC(C#N)C#N)ccc1/N=N/c1ccc([N+](=O)[O-])cc1` was tested, and the GI50 (SNB-75) was 30.7 µM (inactive), the GI50 (OVCAR-4) was > 100 µM (inactive) and the GI50 (SK-MEL-28) was > 100 µM (inactive). For the same compound, the GI50 (SK-MEL-2) was > 100 µM (inactive), the GI50 (NCI-H226) was > 100 µM (inactive) and the GI50 (NCI-H522) was 46.5 µM (inactive). For the same compound, the GI50 (SNB-19) was 65.5 µM (inactive), the GI50 (SF-268) was > 100 µM (inactive) and the GI50 (DMS-273) was > 100 µM (inactive). For the same compound, the GI50 (DLD-1) was > 100 µM (inactive), the GI50 (MOLT-4) was 58.3 µM (inactive) and the GI50 (HOP-62) was > 100 µM (inactive). The GI50 (CCRF-CEM) was > 100 µM (inactive), the GI50 (COLO 205) was > 100 µM (inactive) and the GI50 (LOX IMVI) was > 100 µM (inactive). For the same compound, the GI50 (K562) was 91.2 µM (inactive), the GI50 (RPMI-8226) was 49.1 µM (inactive) and the GI50 (KM12) was > 100 µM (inactive). For the same compound, the GI50 (A549) was > 100 µM (inactive), the GI50 (SK-OV-3) was > 100 µM (inactive) and the GI50 (M14) was > 100 µM (inactive). For the same compound, the GI50 (OVCAR-3) was 64.3 µM (inactive), the GI50 (LXFL 529) was 37.6 µM (inactive) and the GI50 (SW-620) was > 100 µM (inactive). For the same compound, the GI50 (OVCAR-5) was > 100 µM (inactive), the GI50 (SNB-78) was > 100 µM (inactive) and the GI50 (OVCAR-8) was > 100 µM (inactive). For the same compound, the GI50 (SF-295) was > 100 µM (inactive), the GI50 (KM-20L2) was > 100 µM (inactive) and the GI50 (IGROV-1) was > 100 µM (inactive). For the same compound, the GI50 (HT-29) was > 100 µM (inactive), the GI50 (M19-MEL) was > 100 µM (inactive) and the GI50 (A498) was > 100 µM (inactive). For the same compound, the GI50 (UACC-62) was > 100 µM (inactive), the GI50 (HOP-18) was > 100 µM (inactive) and the GI50 (HCT-15) was > 100 µM. For the same compound, the GI50 (U-251) was > 100 µM (inactive), the GI50 (ACHN) was > 100 µM (inactive) and the GI50 (HCT-116) was > 100 µM (inactive). For the same compound, the GI50 (NCI-H460) was > 100 µM (inactive), the GI50 (DMS-114) was 65.2 µM (inactive) and the GI50 (HCC 2998) was > 100 µM (inactive). For the same compound, the GI50 (NCI-H23) was > 100 µM (inactive), the GI50 (UO-31) was > 100 µM (inactive) and the GI50 (UACC-257) was > 100 µM (inactive). For the same compound, the GI50 (SR) was 49.5 µM (inactive), the GI50 (RXF 631) was > 100 µM (inactive) and the GI50 (SF-539) was > 100 µM (inactive). For the same compound, the GI50 (SN12C) was > 100 µM (inactive), the GI50 (Malme-3M) was > 100 µM (inactive) and the GI50 (SK-MEL-5) was > 100 µM (inactive). For the same compound, the GI50 (CAKI-1) was > 100 µM (inactive), the GI50 (TK-10) was > 100 µM (inactive) and the GI50 (RXF 393) was > 100 µM (inactive). For the same compound, the GI50 (EKVX) was > 100 µM (inactive) and the GI50 (786-0) was > 100 µM (inactive).
With `O[C@]12CCCC[C@H]1CCC2` the GI50 (SNB-75) was > 100 µM (inactive), the GI50 (OVCAR-4) was > 100 µM (inactive) and the GI50 (SK-MEL-28) was > 100 µM (inactive). For the same compound, the GI50 (SK-MEL-2) was > 100 µM (inactive), the GI50 (NCI-H522) was > 100 µM (inactive) and the GI50 (HOP-92) was > 100 µM (inactive). The GI50 (SNB-19) was > 100 µM (inactive), the GI50 (SF-268) was > 100 µM (inactive) and the GI50 (DMS-273) was > 100 µM (inactive). The GI50 (HL-60) was > 100 µM (inactive), the GI50 (MOLT-4) was > 100 µM (inactive) and the GI50 (HOP-62) was > 100 µM (inactive). For the same compound, the GI50 (CCRF-CEM) was > 100 µM (inactive), the GI50 (COLO 205) was > 100 µM (inactive) and the GI50 (LOX IMVI) was > 100 µM (inactive). For the same compound, the GI50 (K562) was > 100 µM (inactive), the GI50 (RPMI-8226) was > 100 µM (inactive) and the GI50 (KM12) was > 100 µM (inactive). For the same compound, the GI50 (A549) was > 100 µM (inactive), the GI50 (SK-OV-3) was > 100 µM (inactive) and the GI50 (M14) was > 100 µM (inactive). For the same compound, the GI50 (OVCAR-3) was > 100 µM (inactive), the GI50 (LXFL 529) was > 100 µM (inactive) and the GI50 (SW-620) was > 100 µM (inactive). The GI50 (OVCAR-5) was > 100 µM (inactive), the GI50 (SNB-78) was > 100 µM (inactive) and the GI50 (OVCAR-8) was > 100 µM (inactive). For the same compound, the GI50 (SF-295) was > 100 µM (inactive), the GI50 (IGROV-1) was > 100 µM (inactive) and the GI50 (XF498) was > 100 µM (inactive). For the same compound, the GI50 (HT-29) was > 100 µM (inactive), the GI50 (M19-MEL) was > 100 µM (inactive) and the GI50 (A498) was > 100 µM (inactive). The GI50 (UACC-62) was > 100 µM (inactive), the GI50 (HCT-15) was > 100 µM and the GI50 (U-251) was > 100 µM (inactive). The GI50 (ACHN) was > 100 µM (inactive), the GI50 (HCT-116) was > 100 µM (inactive) and the GI50 (NCI-H460) was > 100 µM (inactive). The GI50 (DMS-114) was > 100 µM (inactive), the GI50 (HCC 2998) was > 100 µM (inactive) and the GI50 (NCI-H23) was > 100 µM (inactive). The GI50 (UO-31) was > 100 µM (inactive), the GI50 (UACC-257) was > 100 µM (inactive) and the GI50 (RXF 631) was > 100 µM (inactive). For the same compound, the GI50 (SF-539) was > 100 µM (inactive), the GI50 (SN12C) was > 100 µM (inactive) and the GI50 (Malme-3M) was > 100 µM (inactive). The GI50 (SK-MEL-5) was > 100 µM (inactive), the GI50 (CAKI-1) was > 100 µM (inactive) and the GI50 (TK-10) was > 100 µM (inactive). The GI50 (RXF 393) was > 100 µM (inactive), the GI50 (EKVX) was > 100 µM (inactive) and the GI50 (786-0) was > 100 µM (inactive).
